# According to patent publication US20250171438A1 (Agios Pharmaceuticals, Inc., priority 2022, published 2025):
# Target: T1, human PAH with the R408W mutation (Homo sapiens, UniProt P00439, R408W)
# T1 construct: expressed in transfected cells
# T1 sequence (P00439 1-452 R408W): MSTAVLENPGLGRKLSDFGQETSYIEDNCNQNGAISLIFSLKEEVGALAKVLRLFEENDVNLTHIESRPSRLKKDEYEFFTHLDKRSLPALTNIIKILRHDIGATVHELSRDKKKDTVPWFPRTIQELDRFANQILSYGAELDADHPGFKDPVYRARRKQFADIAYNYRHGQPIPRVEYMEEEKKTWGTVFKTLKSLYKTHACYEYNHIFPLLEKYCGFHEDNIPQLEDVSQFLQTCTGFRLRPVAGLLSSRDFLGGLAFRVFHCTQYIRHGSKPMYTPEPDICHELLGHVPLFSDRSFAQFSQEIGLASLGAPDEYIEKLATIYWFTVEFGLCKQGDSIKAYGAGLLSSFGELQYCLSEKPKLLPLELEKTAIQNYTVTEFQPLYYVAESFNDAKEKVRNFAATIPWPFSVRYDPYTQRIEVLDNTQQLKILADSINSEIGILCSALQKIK
# Test: Cell Based Phenylalanine Flux Assay
# Settings: A375 cells expressing human R408W PAH; 24 hrs compound incubation; 13C-Tyrosine by LC-MS; average where tested multiple times; read-out: AC50
row,Compound,AC50 [µM]
1,O=C(c1cnn(CC(F)(F)F)c1C(F)F)N1CCc2[nH]cnc2[C@H]1c1nc2ccccc2s1 [Example 1973],< 0.5
2,"O=C(c1cnn(CC(F)(F)F)c1C(F)F)N1CCc2[nH]cnc2[C@@H]1c1nc2ccccc2s1 [Example 1974, (R)-(4-(benzo[d]thiazol-2-yl)-6,7-dihydro-1H-imidazo[4,5-c]pyridin-5(4H)-yl)(5-(difluoromethyl)-1-(2,2,2-trifluoroethyl)-1H-pyrazol-4-yl)methanone]",1 to 5
3,O=C(c1cnn(CC(F)(F)F)c1C(F)F)N1CCc2[nH]cnc2[C@H]1c1nc2c(F)cccc2s1 [Example 1975],1 to 5
4,Cn1nc(Br)nc1C(=O)N1CCc2[nH]cnc2[C@H]1c1nc2ccccc2s1 [Example 1977],1 to 5
5,"Cn1nc(Br)nc1C(=O)N1CCc2[nH]cnc2[C@@H]1c1nc2ccccc2s1 [Example 1978, (R)-(4-(benzo[d]thiazol-2-yl)-6,7-dihydro-1H-imidazo[4,5-c]pyridin-5(4H)-yl)(3-bromo-1-methyl-1H-1,2,4-triazol-5-yl)methanone]",1 to 5
6,"C[C@@H](O)c1nc(C(F)F)c(C(=O)N2CCc3[nH]cnc3[C@@H]2c2nc3c(F)cccc3s2)o1 [Example 1979, (4-(difluoromethyl)-2-((R)-1-hydroxyethyl)oxazol-5-yl)((R)-4-(4-fluorobenzo[d]thiazol-2-yl)-6,7-dihydro-1H-imidazo[4,5-c]pyridin-5(4H)-yl)methanone]",0.5 to 1
7,"C[C@@H](O)c1nc(C(F)F)c(C(=O)N2CCc3[nH]cnc3[C@H]2c2nc3c(F)cccc3s2)o1 [Example 1980, (4-(difluoromethyl)-2-((R)-1-hydroxyethyl)oxazol-5-yl) ((S)-4-(4-fluorobenzo[d]thiazol-2-yl)-6,7-dihydro-1H-imidazo[4,5-c]pyridin-5(4H)-yl)methanone]",< 0.5
8,O=C(c1cn(CC(F)(F)F)nc1C(F)F)N1CCc2[nH]cnc2[C@H]1c1nc2ccccc2s1 [Example 1985],< 0.5
9,"O=C(c1cn(CC(F)(F)F)nc1C(F)F)N1CCc2[nH]cnc2[C@@H]1c1nc2ccccc2s1 [Example 1986, (R)-(4-(benzo[d]thiazol-2-yl)-6,7-dihydro-1H-imidazo[4,5-c]pyridin-5(4H)-yl)(3-(difluoromethyl)-1-(2,2,2-trifluoroethyl)-1H-pyrazol-4-yl)methanone]",1 to 5
10,O=C(c1oc(C2(O)CC2)nc1C(F)F)N1CCc2[nH]cnc2[C@H]1c1nc2c(F)cccc2s1 [Example 1995],< 0.5
11,"O=C(c1oc(C2(O)CC2)nc1C(F)F)N1CCc2[nH]cnc2[C@@H]1c1nc2c(F)cccc2s1 [Example 1996, (R)-(4-(difluoromethyl)-2-(1-hydroxycyclopropyl)oxazol-5-yl)(4-(4-fluorobenzo[d]thiazol-2-yl)-6,7-dihydro-1H-imidazo[4,5-c]pyridin-5(4H)-yl)methanone]",1 to 5
12,"Cc1nc(C(C)(C)C#N)oc1C(=O)N1CCc2[nH]cnc2[C@@H]1c1nc2c(F)cccc2s1 [Example 1997, (R)-2-(5-(4-(4-fluorobenzo[d]thiazol-2-yl)-4,5,6,7-tetrahydro-1H-imidazo[4,5-c]pyridine-5-carbonyl)-4-methyloxazol-2-yl)-2-methylpropanenitrile]",1 to 5
13,"Cc1nc(C(C)(C)C#N)oc1C(=O)N1CCc2[nH]cnc2[C@H]1c1nc2c(F)cccc2s1 [Example 1998, (S)-2-(5-(4-(4-fluorobenzo[d]thiazol-2-yl)-4,5,6,7-tetrahydro-1H-imidazo[4,5-c]pyridine-5-carbonyl)-4-methyloxazol-2-yl)-2-methylpropanenitrile]",< 0.5

# Next, values leading:
row,AC50 [µM],Compound
1,0.5 to 1,"O=C(c1cnn(CC2CC2)c1Cl)N1CCc2[nH]cnc2[C@H]1c1nc2c(F)cccc2s1 [Example 1971, (S)-(5-chloro-1-(cyclopropylmethyl)-1H-pyrazol-4-yl)(4-(4-fluorobenzo[d]thiazol-2-yl)-6,7-dihydro-1H-imidazo[4,5-c]pyridin-5(4H)-yl)methanone]"
2,1 to 5,"O=C(c1cnn(CC2CC2)c1Cl)N1CCc2[nH]cnc2[C@@H]1c1nc2c(F)cccc2s1 [Example 1972, (R)-(5-chloro-1-(cyclopropylmethyl)-1H-pyrazol-4-yl)(4-(4-fluorobenzo[d]thiazol-2-yl)-6,7-dihydro-1H-imidazo[4,5-c]pyridin-5(4H)-yl)methanone]"
3,0.5 to 1,"O=C(c1cnn(CC(F)(F)F)c1C(F)F)N1CCc2[nH]cnc2[C@@H]1c1nc2c(F)cccc2s1 [Example 1976, (R)-(5-(difluoromethyl)-1-(2,2,2-trifluoroethyl)-1H-pyrazol-4-yl)(4-(4-fluorobenzo[d]thiazol-2-yl)-6,7-dihydro-1H-imidazo[4,5-c]pyridin-5(4H)-yl)methanone]"
4,< 0.5,"O=C(c1cn(CC(F)F)nc1Cl)N1CCc2[nH]cnc2[C@H]1c1nc2c(F)cccc2s1 [Example 1981, (S)-(3-chloro-1-(2,2-difluoroethyl)-1H-pyrazol-4-yl)(4-(4-fluorobenzo[d]thiazol-2-yl)-6,7-dihydro-1H-imidazo[4,5-c]pyridin-5(4H)-yl)methanone]"
5,1 to 5,"O=C(c1cn(CC(F)F)nc1Cl)N1CCc2[nH]cnc2[C@@H]1c1nc2c(F)cccc2s1 [Example 1982, (R)-(3-chloro-1-(2,2-difluoroethyl)-1H-pyrazol-4-yl)(4-(4-fluorobenzo[d]thiazol-2-yl)-6,7-dihydro-1H-imidazo[4,5-c]pyridin-5(4H)-yl)methanone]"
6,< 0.5,"O=C(c1cn(CC2CC2)nc1Cl)N1CCc2[nH]cnc2[C@H]1c1nc2c(F)cccc2s1 [Example 1983, (S)-(3-chloro-1-(cyclopropylmethyl)-1H-pyrazol-4-yl)(4-(4-fluorobenzo[d]thiazol-2-yl)-6,7-dihydro-1H-imidazo[4,5-c]pyridin-5(4H)-yl)methanone]"
7,1 to 5,"O=C(c1cn(CC2CC2)nc1Cl)N1CCc2[nH]cnc2[C@@H]1c1nc2c(F)cccc2s1 [Example 1984, (R)-(3-chloro-1-(cyclopropylmethyl)-1H-pyrazol-4-yl)(4-(4-fluorobenzo[d]thiazol-2-yl)-6,7-dihydro-1H-imidazo[4,5-c]pyridin-5(4H)-yl)methanone]"
8,< 0.5,O=C(c1cn(CC(F)(F)F)nc1C(F)F)N1CCc2[nH]cnc2[C@H]1c1nc2c(F)cccc2s1 [Example 1987]
9,1 to 5,"O=C(c1cn(CC(F)(F)F)nc1C(F)F)N1CCc2[nH]cnc2[C@@H]1c1nc2c(F)cccc2s1 [Example 1988, (R)-(3-(difluoromethyl)-1-(2,2,2-trifluoroethyl)-1H-pyrazol-4-yl)(4-(4-fluorobenzo[d]thiazol-2-yl)-6,7-dihydro-1H-imidazo[4,5-c]pyridin-5(4H)-yl)methanone]"
10,1 to 5,"O=C(c1cnn(CC2CC(F)(F)C2)c1Cl)N1CCc2[nH]cnc2[C@H]1c1nc2c(F)cccc2s1 [Example 1989, (S)-(5-chloro-1-((3,3-difluorocyclobutyl)methyl)-1H-pyrazol-4-yl)(4-(4-fluorobenzo[d]thiazol-2-yl)-6,7-dihydro-1H-imidazo[4,5-c]pyridin-5(4H)-yl)methanone]"
11,1 to 5,"O=C(c1cnn(CC2CC(F)(F)C2)c1Cl)N1CCc2[nH]cnc2[C@@H]1c1nc2c(F)cccc2s1 [Example 1990, (R)-(5-chloro-1-((3,3-difluorocyclobutyl)methyl)-1H-pyrazol-4-yl)(4-(4-fluorobenzo[d]thiazol-2-yl)-6,7-dihydro-1H-imidazo[4,5-c]pyridin-5(4H)-yl)methanone]"
12,< 0.5,"CC(=O)Cn1cc(C(=O)N2CCc3[nH]cnc3[C@H]2c2nc3c(F)cccc3s2)c(Cl)n1 [Example 1991, (S)-1-(3-chloro-4-(4-(4-fluorobenzo[d]thiazol-2-yl)-4,5,6,7-tetrahydro-1H-imidazo[4,5-c]pyridine-5-carbonyl)-1H-pyrazol-1-yl)propan-2-one]"
13,> 5,"CC(=O)Cn1cc(C(=O)N2CCc3[nH]cnc3[C@@H]2c2nc3c(F)cccc3s2)c(Cl)n1 [Example 1992, (R)-1-(3-chloro-4-(4-(4-fluorobenzo[d]thiazol-2-yl)-4,5,6,7-tetrahydro-1H-imidazo[4,5-c]pyridine-5-carbonyl)-1H-pyrazol-1-yl)propan-2-one]"
14,1 to 5,"CC(C)(O)Cn1cc(C(=O)N2CCc3[nH]cnc3[C@@H]2c2nc3c(F)cccc3s2)c(Cl)n1 [Example 1993, (R)-(3-chloro-1-(2-hydroxy-2-methylpropyl)-1H-pyrazol-4-yl)(4-(4-fluorobenzo[d]thiazol-2-yl)-6,7-dihydro-1H-imidazo[4,5-c]pyridin-5(4H)-yl)methanone]"
15,1 to 5,CC(C)(O)Cn1cc(C(=O)N2CCc3[nH]cnc3[C@H]2c2nc3c(F)cccc3s2)c(Cl)n1 [Example 1994]
16,0.5 to 1,"O=C(c1cnn(C2CC2)c1C(F)F)N1CCc2[nH]cnc2[C@H]1c1nc2c(F)cccc2s1 [Example 1999, (S)-(1-cyclopropyl-5-(difluoromethyl)-1H-pyrazol-4-yl)(4-(4-fluorobenzo[d]thiazol-2-yl)-6,7-dihydro-1H-imidazo[4,5-c]pyridin-5(4H)-yl)methanone]"
17,1 to 5,"O=C(c1cnn(C2CC2)c1C(F)F)N1CCc2[nH]cnc2[C@@H]1c1nc2c(F)cccc2s1 [Example 2000, (R)-(1-cyclopropyl-5-(difluoromethyl)-1H-pyrazol-4-yl)(4-(4-fluorobenzo[d]thiazol-2-yl)-6,7-dihydro-1H-imidazo[4,5-c]pyridin-5(4H)-yl)methanone]"
